Laboratory results from publication PMC8779831, “Enzyme-Responsive Amphiphilic Peptide Nanoparticles for Biocompatible and Efficient Drug Delivery” (Pharmaceutics, 2022).

Tests used:
[1] = tested on: SW480 cells in zebrafish larvae; test: In vivo anticancer capability in zebrafish cancer model; details: micro-injection, observed 2 days after injection
Description: To examine the anticancer activity of the Dox-loaded RH-(GLFG)3 nanoparticles in vivo, we generated zebrafish cancer models using the SW480 cell line. Briefly, zebrafish eggs were incubated in a fish incubator for 2 days and dechorionated. The SW480 cells were stained using cell fluorescence tracker (cell tracker green CMFDA) for 30 min in a cell culture incubator. The labeled cells were then harvested using trypsin-EDTA and washed twice with PBS containing 10% FBS. The labeled cells were then injected into zebrafish larvae by micro-injection. The larvae were split in 96-well microplates containing TAP-water. After 2 days of incubation, Free Dox and Dox-loaded RH-(GLFG)3 nanoparticles (LL-Dox and DD-Dox) were injected into zebrafish larvae by micro-injection. After 2 days of incubation, the larvae were anesthetized using 0.04% tricaine and observed under a fluorescence microscope (Leica DMi8, Wetzlar, Germany).

HeLa cells [2] = test: Cellular uptake of Dox-loaded nanoparticles, confocal microscopy; assay type: cell-based; details: 1 μM, 16 h (results text; method: 2 μM, 6 h)
Description: The cellular uptake of Dox-loaded RH-(GLFG)3 nanoparticles in HeLa cells was analyzed using confocal microscopy. HeLa cells were seeded to 1.0 × 10^4 cells/well in an 8-well confocal plate and incubated for 24 h. After incubation, the cells were treated using Free Dox, DD-Dox, and LL-Dox at a final concentration of 2 μM and incubated for 6 h. The nuclei of the cells were stained with 20 μM Hoechst 33324 for 15 min. The prepared cells were observed using confocal microscopy. To understand cellular uptake in tissue, we examined 3D spheroids of HeLa cells. For the formulation of the 3D spheroids, 1.0 × 10^4 cells were seeded in a round shaped 96-well plate coated with 1% agarose and incubated for 3 days. After incubation, the cells formed a globular shaped 3D tissue. The prepared 3D spheroids were treated using Free Dox, DD-Dox, and LL-Dox at a final concentration of 1 μM. The 3D spheroid medium was changed every 2 days for the tissue growth. After 7 days, the 3D spheroids were observed using confocal microscopy.

[3] = Dynamic light scattering (DLS) size of peptide nanoparticles; assay type: physicochemical; details: empty peptide nanoparticles 0.5 mg/mL, Tables S1 and S2, mean ± SEM (n=3)
Description: (§1) The size of the peptide nanoparticles at concentrations of 0.5 mg/mL was analyzed by dynamic laser light scattering (DLS) with ELS-Z2 (Photal, Otsuka Electronics Co., Ltd., Otsuka, Japan) and a Nano-ZS (Malvern Instruments Ltd., London, UK). The ξ-potential of the peptide nanoparticles was measured using a Nano-ZS. To confirm their stability, the LL and DD nanoparticles were monitored using a DLS instrument every 5 days for 30 days. The morphology of the LL peptide nanoparticles was measured using a field emission scanning electron microscope (FE-SEM). Thereafter, the dried samples of peptide nanoparticles were coated with osmium and analyzed by FE-SEM (Hitachi, Tokyo, Japan) under a 5–10 kV acceleration voltage. The self-assembled structure of the peptide nanoparticles was analyzed using CD spectroscopy (J-1000, Jasco, Hachioji, Japan). The LL and DD peptide nanoparticle solutions were measured in a quartz cuvette at wavelengths of 190 to 260 nm.
(§2) Doxorubicin (Dox) was encapsulated in the RH-(GFLG)3 peptide nanoparticles to evaluate their potential as drug delivery carriers. […] The prepared Dox-loaded RH-(GFLG)3 nanoparticles (LL-Dox, LD-Dox, DL-Dox, and DD-Dox) were stored at 4 °C, and their size diameter and ξ-potential were measured using DLS and zeta instruments of Nano ZS90 (Malvern, Worcestershire, UK) to confirm the formulation of the nanostructure.

[4] = FE-SEM morphology of peptide nanoparticles; assay type: physicochemical; details: dried samples, osmium coated, 5–10 kV
Description: as §1

[5] = Critical aggregation concentration with Nile Red probe; assay type: physicochemical
Description: The critical aggregation concentration (CAC) value of the RH-(GFLG)3 nanoparticles was analyzed using the hydrophobic probe Nile Red. Briefly, the peptide nanoparticles were prepared at various concentrations ranging from 0.001 to 0.3 mg/mL to make a final volume of 1 mL. Then, the prepared nanoparticle solutions were mixed with 5 μL of 40 μM Nile Red solution in ethanol to a final concentration of 0.2 μM. The samples were dried to remove the ethanol using nitrogen gas stream and incubated for 1 h at room temperature (25 °C). After incubation, prepared samples were measured using fluorescence spectroscopy (PerkinElmer, Waltham, MA, USA) at an excitation wavelength of 515 nm and emission wavelengths of 550–750 nm. The CAC of the peptide nanoparticles was analyzed by fluorescence intensity at 650 nm.

[6] = ξ-potential of peptide nanoparticles (Nano-ZS); assay type: physicochemical; details: empty peptide nanoparticles; Tables S1 and S2; mean ± SEM (n=3); in mV (unit assumed)
Description: as §1, §2

cathepsin B = target: T1, cathepsin B (Homo sapiens, UniProt P07858); test: Enzyme-responsiveness test with cathepsin B, MALDI-TOF MS; assay type: in vitro ADME; details: 0.02 μM cathepsin B in activation buffer, 37 °C, 6 h; versus control without enzyme
T1 construct: purchased Sigma-Aldrich (Seoul, Korea)
Description: The enzyme-responsive ability of RH-(GFLG)3 was analyzed using matrix assisted laser mass spectroscopy (MALDI-TOF, Voyager TOF Mass Spectrometer, Applied Biosystems Inc., Carlsbad, CA, USA). The LL, LD, DL, and DD peptides were treated with 0.02 μM of the enzyme cathepsin B in an activation buffer at 37 °C for 6 h. To compare enzyme-responsive ability, control groups without enzyme were treated identically in an activation buffer at 37 °C for 6 h. The prepared peptides were measured using MALDI-TOF (Voyager TOF Mass Spectrometer) in a α-cyano-4-hydroxycinnamic acid (CHCA) matrix.

HeLa cells [7] = test: Cytotoxicity of peptide nanoparticles, WST-1 / MTT assay; assay type: cell-based; details: 24 h, highest concentration of 0.2 μg/μL, mean ± SEM (n = 3)
Description: (§3) The cytotoxicity of the RH-(GFLG)3 nanoparticles was examined using WST-1, LDH, and hemolysis assays. For the WST-1 assay, the HeLa cells were seeded to 1.0 × 10^4 cells/well in a 96-well microplate and incubated for 24 h. PEI 25kD and LL, LD, DL, and DD were prepared at various concentrations (0.025 to 0.2 μg/μL). PEI 25kD, a cationic polymer, was introduced as a positive control. After 24 h of incubation, 10 µL WST-1 was added to each well and incubated for 2 h. WST-1 formazan was measured using a VERASmax microplate reader (Molecular Devices, LLC, Sunnyvale, CA, USA) at an absorbance of 450 nm. For the LDH assay, 20% Tween-20 treated cells were examined as maximum LDH activated control to calculate the LDH activity (%) of samples. After 24 h incubation, 10 μL of the supernatant of each sample was collected and added to a working reagent containing 0.2 mM NADH and 2.5 mM sodium pyruvate in a 96-well microplate and incubated for 45 min at 37 °C. Finally, the LDH activity was quantified by measuring the absorbance at 490 nm using a microplate reader.

human RBCs = test: Hemolysis assay; assay type: cell-based; details: 0.1 and 0.2 μg/μL, 2 h at 37 °C, absorbance 450 nm, Triton X-100 0.2% as maximum
Description: The hemolysis of LL, LD, DL, and DD nanoparticles was investigated using human blood cells. PEI 25kD was introduced as a positive control. Briefly, fresh human blood was obtained from healthy volunteers. Coagulation of human blood was prevented using ethylenediaminetetraacetic acid (EDTA). The human blood was centrifuged at 5000 rpm for 5 min to separate the red blood cells (RBCs) from the serum. The isolated RBCs were washed twice using PBS and diluted to 2.0 × 10^8 cells/mL in PBS. To evaluate the hemolytic activity, Triton X-100 0.2% treated samples were used as the maximum hemolytic activity control. A 0.25 mL volume of the prepared RBCs was mixed with 0.25 mL of each sample (final concentration of 0.1 μg/μL and 0.2 μg/μL, respectively). The mixed samples were incubated for 2 h at 37 °C. After incubation, the samples were centrifuged at 5000 rpm for 5 min, and […] of the supernatant of each sample was collected. The supernatant was diluted 10-fold using PBS to a final volume of 100 μL. The prepared supernatant solution was added to a 96-well microplate and measured at 450 nm using a VERSAmax microplate reader (Molecular Devices, San Jose, CA, USA).

[8] = Storage stability of nanoparticles monitored by DLS; assay type: physicochemical; details: DLS every 5 days for 30 days at 4 °C; mean ± SEM (n = 3)
Description: as §1

HeLa cells [9] = test: Cellular uptake of Nile Red-tagged nanoparticles (confocal microscopy, FACS); assay type: cell-based; details: Nile Red-tagged nanoparticles 0.2 mg/mL, 6 h confocal microscopy (16 h FACS)
Description: The cellular uptake ability of the peptide nanoparticle was analyzed using confocal microscopy (Zeiss International, Oberkochen, Germany) and fluorescence-activated cell sorting (FACS) (BD Biosciences, San Jose, CA). For confocal microscopy assays, 1.0 × 10^4 cells/well were seeded in an 8-well confocal plate and incubated for 24 h. Nile Red-tagged LL, DL, DL, and DD peptide nanoparticles were treated to a final concentration of 0.2 mg/mL, and the cells were incubated for 6 h. After incubation, the cell nuclei were stained with 20 μM Hoechst 33324 for 15 min. The prepared cells were observed using confocal microscopy. In the FACS assay, 1.0 × 10^6 cells/well were seeded in 6-well microplate and incubated for 24 h. After incubation, the Nile Red-tagged peptide nanoparticles were treated to a final concentration of 0.2 mg/mL, and cells were incubated for 16 h. After incubation, the cells were washed twice using DPBS and harvested using trypsin-EDTA. The cells were collected by centrifugation (1500 rpm, 3 min) and resuspended in 500 μL of DPBS. The prepared samples were transferred to a FACS tube and analyzed using FACS.

HeLa cells [10] = test: Anticancer effect, MTT assay in HeLa cells; assay type: cell-based; details: HeLa, 24, 48 and 72 h, peptide without Dox
Description: (§4) The anticancer activity of Dox-loaded peptide nanoparticles in HeLa and SW480 cells was determined with an MTT assay. Cells were seeded to 1.0 × 10^4 cells/well in a 96-well microplate and incubated for 24 h. After incubation, the cells were treated using Free Dox and Dox-loaded RH-(GLFG)3 nanoparticles to a final concentration of 0.25–2 μM and incubated for 24–72 h. After incubation, the prepared samples were analyzed following the method described above. To understand the anticancer effect in tissue, 3D spheroids of HeLa cells were prepared as described above. The prepared 3D spheroids were treated with 1 μM Free Dox, DD-Dox, and LL-Dox and incubated for 1–7 days. The morphology of the 3D spheroids was observed using an objective microscope every day. After 7 days of incubation, the viability of the spheroids was analyzed using an MTT assay. The spheroids were added to the MTT solution (2 mg/mL in DPBS) and incubated for 4 h. The supernatant was removed, and 150 μL of DMSO was added to each sample. The prepared samples were measured using a micro reader (Molecular Devices, San Jose, CA, USA) at an absorbance of 570 nm.

SW480 cells = test: Anticancer effect, MTT assay in SW480 cells; assay type: cell-based; details: SW480, 24, 48 and 72 h, peptide without Dox
Description: as §4

HeLa cells [11] = test: LDH assay (membrane damage); assay type: cell-based; details: 24 h, 0.025–0.2 μg/μL, relative to 20% Tween-20 control
Description: as §3

| Molecule | anticancer effect on cell tracker labelled SW480 cells (fluorescence) [1] | cellular uptake ability of Dox (HeLa cells [2]) | Hydrodynamic diameter [3] | Polydispersity index (PDI) [3] | size of globular nanostructure in FE-SEM images [4] | critical aggregation concentration (CAC) ([5]; Nile Red 0.2 μM, peptide 0.001–0.3 mg/mL, 1 h at 25 °C, fluorescence ex 515 nm, intensity at 650 nm) | CAC (printed in Figure 2E) ([5]; Nile Red probe, fluorescence at 650 nm) | Ξ-Potential [6] | degradation by cathepsin B (peak at 1433 m/z in MALDI-TOF mass spectrum) (cathepsin B) | cytotoxicity (cell viability) (HeLa cells [7]) | hemolysis (human RBCs) | nanoscale diameter during storage [8] | cellular uptake ability (HeLa cells [9]) | cytotoxicity of peptide control groups (HeLa cells [10]) | cytotoxicity of peptide control groups (SW480 cells) | LDH release (HeLa cells [11]) |
| --- | --- | --- | --- | --- | --- | --- | --- | --- | --- | --- | --- | --- | --- | --- | --- | --- |
| COc1cccc2c1C(=O)c1c(O)c3c(c(O)c1C2=O)C[C@@](O)(C(=O)CO)C[C@@H]3O[C@H]1C[C@H](N)[C@H](O)[C@H](C)O1 [Free Dox, doxorubicin] | low anticancer effect | low cellular uptake ability | – | – | – | – | – | – | – | – | – | – | – | – | – | – |
| Arg-His-(Gly-Phe-Lue-Gly)3 [LL] | – | – | 118 ± 7.7 nm | 0.245 ± 0.010 | smaller than 100 nm | around 0.02 mg/mL | 0.02 µg/µL | 30.1 ± 0.4 | no peak at 1433 m/z | negligible cytotoxicity | negligible hemolysis | less than 200 nm | higher uptake | negligible cytotoxicity | negligible cytotoxicity | negligible LDH release |
